Assay results reported in US20140315322A1 (FUSO PHARMACEUTICAL INDUSTRIES, LTD., priority 2011, published 2014).
“And” between values parts separate entries of the source, which are not always exact repeats. Equal values may be shown once.

Tests used:
clinical [1] = conditions: blood plasma of individual dialysis patients treated with acetic acid-containing dialysis fluid, dialysis time 4 hr
Description: From ΔE of samples for calibration curve (W2 to 8, n=1), calibration curve (Y=aX+b, Y: ΔE, X: concentration μmol/L) was prepared by using least-squares method. No weighting of calibration curve was carried out. The range of quantitative analysis was from 20 to 2000 μmol/L.
(§1) The measured value of each sample was calculated by applying the peak area ratio or ΔE to the calibration curve, and rounding off to one decimal place.

clinical [2] = conditions: blood plasma of individual dialysis patients treated with acetic acid-containing dialysis fluid, dialysis time 4 hr; remark: listed apart in the source
Description: Into a polypropylene tube, each sample (400 μL, samples for calibration curve and human blood plasma) was taken, and the internal standard solution IS-W1 (100 μL) was added thereto. Further, 10% sulfosalicylic acid (special grade, manufactured by Wako Pure Chemical Industries) solution (100 μL) was added thereto and stirred. To this solution was added MTBE (400 μL, Lot No. EPF0734, manufactured by Wako Pure Chemical Industries) and stirred for 1 minute. After that, the mixture was subjected to centrifugation (RX-200, manufactured by TOMY SEIKO) at 10000 rpm at 4° C. for 5 minutes, and the supernatant (200 μL) was taken into another glass vial. Then, to the supernatant was added N-methyl-N-(tert-butyldimethylsilyl)trifluoroacetamide (MTBSTFA) (5 to 10 μL, Lot No. BCBC7878, manufactured by ALDRICH) and heated with Block Heater (DTU-2B, manufactured by TAITEC) at 60° C. for 1 to 2 hours. After that, the resultant solution was measured by using GC/MS (JMS-AMII150, manufactured by JEOL) in the following conditions.
Samples were pretreated in the same method as that of “4. Pretreatment method and measurement method for samples” of Example 1, and then measured by GC/MS (5975C GCMSD, manufactured by Agilent) in the following conditions. […]
as §1

## CC(=O)O [acetic acid]
Clinical [1]
  Measured value, Enzyme method: 1620.3 µmol/L and 1653.5 µmol/L and 1896.4 µmol/L
Clinical [1]; human, plasma, other: dialysis with a dialysis fluid containing acetic acid, Measured value, Enzyme method
  concentration at 4 h: 1680 µM
Clinical [2]
  Measured value, GC/MS method: 1745.5 µmol/L and 1854.9 µmol/L and 1991.5 µmol/L
Clinical [2]; human, plasma, other: dialysis with a dialysis fluid containing acetic acid, Measured value, GC/MS method
  concentration at 4 h: 1790 µM
